Results from publication PMC6128612, “Prodrugs for colon-restricted delivery: Design, synthesis, and in vivo evaluation of colony stimulating factor 1 receptor (CSF1R) inhibitors” (PLoS ONE, 2018).

Assays:
murine colitis = tested on: murine colitis; parameters: method as in earlier work; conditions: cited from earlier work
[1] = tested on: IBA1+ macrophages in the colon; assay: Mouse DSS model of colitis: colon macrophages by image analysis; format: in vivo; conditions: 100 mg/kg QD day 7–14
Procedure: (§1) On day 0, super prophylactic dosing of compound 2 began on C57BL/6 female mice. […] At this time compound 3 dosing initiated. […] Statistical analyses of in-vivo pharmacodynamic and efficacy data were performed as follows. D'Agostino & Pearson normality test was first used to test data for Gaussian distribution. If all groups passed normality test, a One-way ANOVA was used with Dunnett’s multiple comparisons test to compare treatment groups to Vehicle group. If not all groups passed normality test, a Kruskal-Wallis nonparametric ANOVA was used, with Dunn’s multiple comparison test to compare treatment groups to Vehicle group. Levels of significance compared to Vehicle are annotated as follows: * = p<0.05, ** = p<0.01, *** = p<0.001, **** = p < 0.0001. Optimal number of mice per group was determined using power analysis; N = 10 mice per group at 80% power predicts statistically significant detection of ≥ ~40% reduction in colon IBA1+ and ≥ ~75% reduction in colon erosion length comparing treatment groups to Vehicle group. Naïve groups were omitted from statistical analyses.

rheumatoid arthritis = tested on: rheumatoid arthritis; parameters: method as in PMID 26233509; conditions: DMARD-refractory active RA patients; cited from earlier work
[2] = tested on: CD11b+ CD11c+ MHCII- nonclassical monocytes; assay: Mouse DSS model of colitis: circulating non-classical monocytes by FACS; format: in vivo; conditions: 100 mg/kg QD day 7–14
Procedure: as §1

In the case of `CC1(C)CC=C(c2nc(C3CC(C)(C)OC(C)(C)C3)ccc2NC(=O)c2nc(C#N)c[nH]2)CC1` [Compound 3], the “Clinical and histopathological disease readouts” value (murine colitis) is listed as “reduction in clinical and histopathological disease readouts”, the “Depletion of macrophages (IBA1+) in the colon” value [1] is listed as 76% and the “Efficacy in Phase II trial” value (rheumatoid arthritis) is listed as “lack of efficacy”. The “Depletion of CD11b+ CD11c+ MHCII- nonclassical monocytes” value [2] was 94%.
